Test results reported in article PMC12144862, “Structural Basis of Sequential Enantioselective Epoxidation by a Flavin-Dependent Monooxygenase in Lasalocid A Biosynthesis” (Angewandte Chemie (International ed. in English), 2025).

Target: T1, Lsd18 (Streptomyces lasalocidi, UniProt B5M9L6)
T1 construct: recombinant Lsd18 with FAD; two molecules in the asymmetric unit
Assay: LC-MS epoxidation assay
Type: biochemical
Settings: forms mono- and bisepoxide

T1 sequence (B5M9L6 whole entry): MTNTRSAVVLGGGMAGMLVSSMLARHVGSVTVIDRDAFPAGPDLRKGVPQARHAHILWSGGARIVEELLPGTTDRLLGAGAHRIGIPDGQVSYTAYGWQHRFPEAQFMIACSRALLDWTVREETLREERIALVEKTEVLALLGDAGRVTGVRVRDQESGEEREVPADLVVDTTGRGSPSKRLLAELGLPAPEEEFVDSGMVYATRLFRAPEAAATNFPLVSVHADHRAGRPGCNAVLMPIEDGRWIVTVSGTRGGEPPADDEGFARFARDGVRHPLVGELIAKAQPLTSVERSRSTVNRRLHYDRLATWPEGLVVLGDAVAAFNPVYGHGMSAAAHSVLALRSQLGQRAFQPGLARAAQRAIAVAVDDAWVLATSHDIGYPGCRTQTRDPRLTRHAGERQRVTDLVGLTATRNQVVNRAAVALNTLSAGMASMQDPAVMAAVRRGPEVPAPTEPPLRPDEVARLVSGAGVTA

## CC(=O)OC/C=C(\C)CC/C=C(\C)CCC=C(C)C [farnesyl acetate]
  LC-MS epoxidation assay: Lsd18 transforms farnesyl acetate, a natural sesquiterpene, into a bisepoxide
